From US7135303B2, “Regulators of type-1 tumor necrosis factor receptor and other cytokine receptor shedding” (The United States of America as represented by the …, priority 2000, dated 2006) come the findings set out here.

Holding throughout (experiment): ARTS-1 aminopeptidase activity assay (amide bond hydrolysis of amino acid p-nitroanilide substrates, absorbance at 380 nm)
Data set [1] concerns the target T1, recombinant GST-ARTS-1 fusion protein (Homo sapiens, UniProt Q9NZ08).
T1 construct: ARTS-1 extracellular domain (i.e., the ectodomain; amino acids 30–941) was PCR amplified; made in house
Format: biochemical. The following applies: for Vmax: aa-pNA substrate 0.25 to 8 mM, 24 pmoles GST-ARTS-1, 50 mM Tris pH 7.5, room temperature, 1 hour; for Vmax / Km: Lineweaver-Burk; for kcat / Km: aa-pNA substrate with GST-ARTS-1; for aminopeptidase activity of recombinant GST-ARTS-1 against the amino acid substrate: acidic or basic amino acid p-nitroanilide substrates. On the procedure: (§1) To accomplish this, commercially available amino acid p-nitroanilide substrates were incubated with purified GST-ARTS-1 fusion protein for 1 hour under conditions of linear enzyme activity over time. The rate of amide bond hydrolysis was determined by measuring the absorbance of the p-nitroaniline aminopeptidase reaction product at 380 nm. Each experimental point was run in triplicate and each determination utilized six concentrations of amino acid p-nitroanilide substrate. Kinetic constants were determined by Lineweaver-Burk analysis. Correlation coefficients for each line generated were greater than 0.997. Each amino acid p-nitroaniline substrate tested is shown in the left colurnr, along with its polar/non-polar/acidic/basic nature. Vmax is a measure of the theoretical enzyme maximal velocity, Km is the Michaelis-Menten constant for each ARTS-1/substrate combination, kcat is the first order rate constant (i.e., the turnover number) for the ARTS-1/substrate combination, and kcat/Km is the second order rate constant for the ARTS-1/substrate combination (i.e., a measure of overall catalytic efficiency).
(§2) Aminopeptidase activity of the recombinant GST-ARTS-1 fusion protein was assessed by determination of the rate of amide bond hydrolysis of amino acid p-nitroanilide substrates (Bachem). Amino acid p-nitroanilides (final concentrations 0.25 to 8 mM) were incubated at room temperature with 24 pmoles of GST-ARTS-1 fusion protein in 200 μl of 50 mM Tris, pH 7.5 for 1 hour. Reactions were terminated by addition of 280 μl of 3M sodium acetate (pH 5.2). The rate of amide bond hydrolysis was determined by measuring the absorbance of p-nitroaniline at 380 nm (See, Table 3, supra). Spontaneous hydrolysis of the substrate was corrected for by subtracting the absorbance of control incubations which were terminated immediately. Kinetic constants were determined by Lineweaver-Burk analysis. Each experimental point was assayed in triplicate and each determination utilized six concentrations of each amino acid p-nitroanilide substrate. Correlation coefficients for each line generated were greater than 0.997.

Substrate in data set [2]: CC[C@H](C)[C@H](N)C(=O)Nc1ccc([N+](=O)[O-])cc1
Format: biochemical, human. The following applies: other: aa-pNA substrate with GST-ARTS-1; Lineweaver-Burk. Here is the method: as §1, §2

Substrate in data set [3]: N[C@@H](Cc1ccccc1)C(=O)Nc1ccc([N+](=O)[O-])cc1
Format: biochemical, human. The following applies: other: aa-pNA substrate with GST-ARTS-1; Lineweaver-Burk. On the procedure: as §1, §2

Substrate in data set [4]: NCC(=O)Nc1ccc([N+](=O)[O-])cc1
It is filed as biochemical, human. The following applies: other: aa-pNA substrate with GST-ARTS-1; Lineweaver-Burk. On the procedure:
as §1, §2

For `CC(C)C[C@H](N)C(=O)Nc1ccc([N+](=O)[O-])cc1` [Leu], in data set [1], the Vmax came to 9.45 ± 0.43 pmol/pmol/min, the kcat was 15.75 ± 0.72 s^−1 × 10^−2 and the Km was determined as 5.26 ± 0.25 mM.

In the case of `CC[C@H](C)[C@H](N)C(=O)Nc1ccc([N+](=O)[O-])cc1` [Ile, isoleucine p-nitroanilide], the Vmax in data set [1] came to 5.81 ± 0.87 pmol/pmol/min.

Consider `N[C@@H](CS)C(=O)Nc1ccc([N+](=O)[O-])cc1` [Cys], for which, in data set [1], the Vmax is 8.95 ± 0.31 pmol/pmol/min, the kcat is 14.92 ± 0.52 s^−1 × 10^−2 and the Km was 4.57 ± 0.2 mM.

As to `N[C@@H](CCC(=O)O)C(=O)Nc1ccc([N+](=O)[O-])cc1` [Glu], in data set [1], the Vmax entry was “No Activity”, the kcat entry was “No Activity” and the “aminopeptidase activity of recombinant GST-ARTS-1 against the amino acid substrate” value (from here on “aminopeptidase activity”) is reported as “no activity”.

On to `N[C@@H](Cc1ccccc1)C(=O)Nc1ccc([N+](=O)[O-])cc1` [Phe, phenylalanine p-nitroanilide], for which, in data set [1], the Vmax is given as 5.14 ± 0.04 pmol/pmol/min.

On to `CSCC[C@H](N)C(=O)Nc1ccc([N+](=O)[O-])cc1` [Met], for which, in data set [1], the Vmax was found to be 13.36 ± 0.75 pmol/pmol/min, the kcat is recorded as 22.27 ± 1.25 s^−1 × 10^−2 and the Km worked out at 7.71 ± 0.43 mM.

For the molecule `N[C@@H](CC(=O)O)C(=O)Nc1ccc([N+](=O)[O-])cc1` [Asp], in data set [1], the Vmax result is “No Activity”, the kcat entry is recorded as “No Activity” and the “aminopeptidase activity” value is “no activity”.

As for `CC(C)[C@H](N)C(=O)Nc1ccc([N+](=O)[O-])cc1` [Val], in data set [1], the Vmax is recorded as 5.31 ± 0.31 pmol/pmol/min, the kcat is 8.85 ± 0.52 s^−1 × 10^−2 and the Km is 5.69 ± 0.26 mM.

As to `O=C(Nc1ccc([N+](=O)[O-])cc1)[C@@H]1CCCN1` [Pro], in data set [1], the Vmax was determined as 5.29 ± 0.08 pmol/pmol/min, the kcat is given as 8.82 ± 0.13 s^−1 × 10^−2 and the Km worked out at 4.68 ± 0.06 mM.

In the case of `N=C(N)NCCC[C@H](N)C(=O)Nc1ccc([N+](=O)[O-])cc1` [Arg], in data set [1], the Vmax result is reported as “No Activity”, the kcat result is listed as “No Activity” and the “aminopeptidase activity” value is given as “no activity”.

As for `NCCCC[C@H](N)C(=O)Nc1ccc([N+](=O)[O-])cc1` [Lys], in data set [1], the Vmax result is recorded as “No Activity”, the kcat entry is on record as “No Activity” and the “aminopeptidase activity” value is given as “no activity”.

Turning to `N[C@@H](Cc1cnc[nH]1)C(=O)Nc1ccc([N+](=O)[O-])cc1` [His], in data set [1], the Vmax result is on record as “No Activity”, the kcat entry is listed as “No Activity” and the “aminopeptidase activity” value is listed as “no activity”.

With `NCC(=O)Nc1ccc([N+](=O)[O-])cc1` [Gly, glycine p-nitroanilide], the Vmax in data set [1] is on record as 8.67 ± 0.05 pmol/pmol/min.

Consider `C[C@H](N)C(=O)Nc1ccc([N+](=O)[O-])cc1` [Ala], for which, in data set [1], the Vmax was determined as 26.18 ± 0.24 pmol/pmol/min, the kcat is listed as 43.63 ± 0.40 s^−1 × 10^−2 and the Km was 16.8 ± 0.18 mM.

B1: recombinant GST-ARTS-1 fusion protein (Homo sapiens) (protein)
chain: SWCQSTEASPKRSDGTPFPWNKIRLPEYVIPVHYDLLIHANLTTLTFWGTTKVEITASQPTSTIILHSHHLQISRATLRKGAGERLSEEPLQVLEHPRQEQIALLAPEPLLVGLPYTVVIHYAGNLSETFHGFYKSTYRTKEGELRILASTQFEPTAARMAFPCFDEPAFKASFSIKIRREPRHLAISNMPLVKSVTVAEGLIEDHFDVTVKMSTYLVAFIISDFESVSKITKSGVKVSVYAVPDKINQADYALDAAVTLLEFYEDYFSIPYPLPKQDLAAIPDFQSGAMENWGLTTYRESALLFDAEKSSASSKLGITMTVAHELAHQWFGNLVTMEWWNDLWLNEGFAKFMEFVSVSVTHPELKVGDYFFGKCFDAMEVDALNSSHPVSTPVENPAQIREMFDDVSYDKGACILNMLREYLSADAFKSGIVQYLQKHSYKNTKNEDLWDSMASICPTDGVKGMDGFCSRSQHSSSSSHWHQEGVDVKTMMNTWTLQKGFPLITITVRGRNVHMKQEHYMKGSDGAPDTGYLWHVPLTFITSKSDMVHRFLLKTKTDVLILPEEVEWIKFNVGMNGYYIVHYEDDGWDSLTGLLKGTHTAVSSNDRASLINNAFQLVSIGKLSIEKALDLSLYLKHETEIMPVFQGLNELIPMYKLMEKRDMNEVETQFKAFLIRLLRDLIDKQTWTDEGSVSERMLRSQLLLLACVHNYQPCVQRAEGYFRKWKESNGNLSLPVDVTLAVFAVGAQSTEGWDFLYSKYQFSLSSTEKSQIEFALCRTQNKEKLQWLLDESFKGDKIKTQEFPQILTLIGRNPVGYPLAWQFLRKNWNKLVQKFELGSSSIAHMVMGTTNQFSTRTRLEEVKGFFSSLKENGSQLRCVQQTIETIEENIGWMDKNFDKIRVWLQSEKLERM
notes: ARTS-1 extracellular domain (i.e., the ectodomain; amino acids 30–941) was PCR amplified; made in house
Take B1: the Km in data set [2] amounted to 1.67 ± 0.02 mM; in data set [3], 1.66 ± 0.03 mM; in data set [4] it was 3.67 ± 0.03 mM. Also, the kcat came out at 0.0968 ± 0.0015 s⁻¹ in data set [2], 0.0857 ± 0.0006 s⁻¹ in data set [3] and 0.1445 ± 0.0008 s⁻¹ in data set [4]. Besides, the kcat/Km in data set [2] was 58 M⁻¹ s⁻¹; in data set [3], 51.6 M⁻¹ s⁻¹; in data set [4], 39.4 M⁻¹ s⁻¹.

Broadly, the Km is the substrate concentration at which the rate is half of its maximum. In general, kcat/Km refers to the second-order rate constant that governs catalysis at low substrate concentration.
